{
  "source": "patent US5356888A",
  "about": "“1,1-dioxo-cephem-4-carbothiolic acid derivatives” (Farmitalia Carlo Erba, priority 1988, dated 1994)",
  "target": "T1, human leukocyte elastase (HLE) (Homo sapiens, UniProt P08246)",
  "T1 construct": "purchased Calbiochem Lot 702038",
  "T1 sequence (P08246 30-267)": "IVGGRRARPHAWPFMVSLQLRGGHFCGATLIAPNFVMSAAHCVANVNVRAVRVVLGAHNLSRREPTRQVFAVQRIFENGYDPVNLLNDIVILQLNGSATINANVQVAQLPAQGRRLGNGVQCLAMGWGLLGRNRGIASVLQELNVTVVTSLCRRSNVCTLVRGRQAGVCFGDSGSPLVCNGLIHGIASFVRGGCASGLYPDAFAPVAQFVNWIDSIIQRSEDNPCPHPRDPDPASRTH",
  "test": "Kinetic parameters for HLE inhibition (release of 7-amino-4-methylcoumarin from N-methoxysuccinyl-alanylprolyl-valyl-7-amido-4-methylcoumarin, fluorescence detection)",
  "type": "biochemical",
  "settings": "37° C., 0.027 M pH 7.4 phosphate buffer, 1% DMSO, 1% MeCN, NaCl (I=0.15); for kon: read-out: kon (rate of formation of the HLE-inhibitor complex); for Ki: steady state, read-out: Ki^ss (apparent dissociation constant of the HLE-inhibitor complex at steady state)",
  "excerpt": "Km =Michaelis constant for the enzyme-substrate pair (independently determined under the same experimental conditions).",
  "data": [
    {"compound": "CC(=O)OCC1=C(C(=O)SC(C)(C)C)N2C(=O)[C@H](Cl)[C@H]2S(=O)(=O)C1", "note": "[Comp. 3]", "values": [
      {"measurement": "kon", "value": 480000, "unit": "M⁻¹ s⁻¹"},
      {"measurement": "Ki", "value": 2.6, "unit": "nM"}
    ]},
    {"compound": "CC(=O)OCC1=C(C(=O)SCc2ccccc2)N2C(=O)[C@H](Cl)[C@H]2S(=O)(=O)C1", "note": "[Comp. 11, Benzyl 3-acetoxymethyl-7S-chloro-8-oxo-5-thia-1-azabicyclo-[4,2,0]oct-2-ene-5,5-dioxide-2-carbothiolate]", "values": [
      {"measurement": "kon", "value": "1.26e+06", "unit": "M⁻¹ s⁻¹"},
      {"measurement": "Ki", "value": 8.2, "unit": "nM"}
    ]},
    {"compound": "COCC1=C(C(=O)SC(C)(C)C)N2C(=O)[C@H](Cl)[C@H]2S(=O)(=O)C1", "note": "[Comp. 59, t-Butyl 7S-chloro-3-methoxymethyl-8-oxo-5-thia-1-azabicyclo [4,2,0]oct-2-ene-5,5-dioxide-2-carbothiolate]", "values": [
      {"measurement": "kon", "value": 150000, "unit": "M⁻¹ s⁻¹"},
      {"measurement": "Ki", "value": 16, "unit": "nM"}
    ]},
    {"compound": "Cn1nnnc1SCC1=C(C(=O)SC(C)(C)C)N2C(=O)[C@H](Cl)[C@H]2S(=O)(=O)C1", "note": "[Comp. 60, t-Butyl 7S-chloro-3-(1-methyl-1,2,3,4-tetrazol-5-yl) thiomethyl-8-oxo-5-thia-1-azabicyclo[4,2,0]oct-2-ene-5,5-dioxide-2-carbothiolate]", "values": [
      {"measurement": "Ki", "value": 4.3, "unit": "nM"}
    ]}
  ]
}
